Experimental data: patent US20180303874A1, “Compositions and Methods for the Prevention of Microbial Infections” (LANKENAU INSTITUTE FOR MEDICAL RESEARCH, priority 2011, published 2018)

Experiments:
HSV = settings: co-incubated; cited from earlier work
Caco-2 cell sheets = assay: Transepithelial electrophysiology of Caco-2 cell sheets; assay type: cell-based, human; settings: vs control
Method: Cells were seeded at the density of 5×10^5 onto sterile Millipore Millicell polycarbonate (PCF) permeable supports (pore size 0.4 μm with a diameter of 30 mm) on Day 0. Cells were allowed to grow for 21-24 days prior to experiments (Hubatsch et al. (2007) Nat. Protoc., 2:2111-9). Three or four Millicell PCF units (2 ml/unit) were placed in a 100 mm sterile petri dish (15 ml/dish). Cells were fed bilaterally 3 times per week with control medium until at least Day 14 and switched to different zinc-supplemented media (Ctrl, 50 or 100 μM elemental zinc) for another week. […]
On the day of experiment, cells were re-fed in fresh culture medium and allowed to incubate at 37° C. for 2 hr prior to the actual experiment. Transepithelial voltage and transepithelial electrical resistance were measured as previously described (Skrovanek et al. (2007) Am. J. Physiol. Regul. Integr. Comp. Physiol., 293:R1046-55). In brief, using silver/silver chloride electrodes in series with 1M NaCl agar bridges, a 40 microamp externally applied current pulse was delivered across the cell layer and the resultant change in the voltage across the cell layer was measured using calomel electrodes in series with 1M NaCl/agar bridges and a Keithley® 197A auto-ranging digital multimeter. […]

claudin-2 = assay: Western blot analysis of tight junctional protein claudin-2 in Caco-2 cells; assay type: cell-based, human; settings: 50 or 100 μM zinc, one week, vs control
Method: (§1) Human gastrointestinal epithelial cells were allowed to grow to maximal density and re-fed with culture media at different zinc concentrations for pre-determined time points (0, 3, 6, 24 or 48 hours, or 7 days). Flasks were washed two times each with ice cold saline, then flash-frozen in an ethanol-dry ice bath, and stored at −80° C. until fractionation. At that time, flasks were quick-thawed and 2 ml of 4° C. Buffer A (20 mM Tris-HCl, pH 7.5, 0.25 M sucrose, 10 mM EGTA, 2 mM EDTA) with protease and phosphatase inhibitors (final concentrations: 0.8 μM aprotinin, 20 μM leupeptin, 50 μM bestatin, 1 mM AEBSF, 10 μM pepstatin) (Calbiochem) was added to each, cells were scraped into the buffer, the suspension mechanically disrupted and then sonicated for 60 seconds on ice and transferred to an ultracentrifuge tube. Tubes were centrifuged in a chilled Beckman 50TI rotor at 39,000 rpm for one hour at 4° C. […] The supernatant from this final spin was the “membrane fraction.” Total protein was measured using the BioRad DC™ Protein Assay Kit.
(§2) Samples of these fractions were analyzed by polyacrylamide gel electrophoresis using a Novex XCell SureLock™ Mini-Cell apparatus and a 4-20% gradient Novex Tris-Glycine, pre-cast, 10-well, 1.5 mm thick gel (Invitrogen). […]
(§3) Films were analyzed for protein expression level by measuring optical density units with a Personal Densitometer™ SI (Molecular Dynamics).

claudin-7 = assay: Western blot analysis of tight junctional protein claudin-7 in Caco-2 cells; assay type: cell-based, human; settings: 50 or 100 μM zinc, one week, vs control
Method: as §1, §2, §3

Compound	inactivation of HSV (HSV)	other results
CC(=O)[O-].CC(=O)[O-].[Zn+2] [zinc acetate]	directly inactivate	
CC(O)C(=O)[O-].CC(O)C(=O)[O-].[Zn+2] (centres unmarked) [zinc lactate]	directly inactivate	
O=S(=O)([O-])[O-].[Zn+2] [zinc sulfate]	directly inactivate	
[Zn] [zinc]		short circuit current (Caco-2 cell sheets; 50 or 100 μM zinc, one week): comparable short circuit currents; transepithelial electrical resistance (Caco-2 cell sheets; one-week zinc supplementation (50 or 100 μM)): significant increase; expression of claudin-2 (claudin-2): significantly reduced; expression of claudin-7 (claudin-7): reduction, albeit to a lesser extent than claudin-2
zinc gluconate	directly inactivate	
